Assays:
[1] = tested on: neonate CBW (cotton bollworm) larvae; experiment: Topical test against neonate CBW larvae; type: in vivo, Heliothis zea; conditions: 24 h, 1 day
Experimental: (§1) Each test compound was formulated by dissolving the compound in an acetone/alcohol (1:1) mixture containing 23 g of "Toximul R" (sulfonate/nonionic emulsifier blend) and 13 g of "Toximul S" (sulfonate/nonionic emulsifier blend) per liter. These mixtures were then diluted with water to give the indicated concentrations.
(§2) Additional insects were evaluated using similar formulations and evaluation procedures, with the exceptions noted.
(§3) After standard exposure periods, percent mortality was evaluated. The following abbreviations are used:
^b Mean of two replicates tested
^c Treated with 1 mL of formulated A83543A

[2] = tested on: neonate CBW (cotton bollworm) larvae; experiment: Percent control of neonate CBW larvae by A83543 components, topical pipet method; type: in vivo, Heliothis zea; conditions: topical, 24 h, read-out: Percent Control
Experimental: as §1, §2, §3
^1 Treatments with the same letter in parentheses are similar at the
^2 Topical pipet method with 20 larve/replicate and 4 replicates; one
day between treatment and observation.

[3] = tested on: CLH (corn leafhopper); experiment: Greenhouse test against CLH; type: in vivo, Dalbulus maidis
Experimental: as §1, §2
After standard exposure periods, percent mortality was evaluated.

[4] = tested on: cabbage looper; experiment: Field trial, cabbage looper on sprouting broccoli; type: in vivo
Experimental: A83543A was evaluated in field trials.

[5] = tested on: black blow fly larvae; experiment: In vitro efficacy against black blow fly larvae; conditions: Phormia regina
Text: Tables XIX-XXI summarize in vitro studies with A83543A and A83543D.

[6] = tested on: blow fly larvae (LBF); experiment: In vitro efficacy, exposure of LBF to chemically added serum samples
Text: ^1 Percent insect mortality following 24 to 48 hrs. in vitro exposure
to chemically added serum samples

[7] = tested on: adult stable fly (ASF); experiment: Sheep systemic test, adult stable fly; type: in vivo; conditions: Stomoxys calcitrans, 24 h
Experimental: (§4) Blood is drawn from the guinea pigs at 30 minutes except as noted, and the samples of blood are centrifuged. Dental wicks are saturated with the blood serum, and then exposed in Petri dishes to adult stable flies; blow fly larvae are exposed in test tubes. After 24 and 48 hours, the insects are examined, and the number of dead are counted. The results of the tests are recorded as the percent of the insects which are killed.
Tests are carried out in sheep using the test method described supra in the Guinea Pig Test description. Test compound is administered by intraperitoneal or intravenous injection or intraruminally; blood samples are drawn at 24 hours in these tests.

[8] = tested on: larval blow fly; experiment: Insecticidal assay in blood of sheep challenged with Haemonchus contortus, larval blow fly; type: in vivo; conditions: 1 × 1 mg/kg IV
Experimental: as §4
Tests are carried out in sheep using the test method described supra in the Guinea Pig Test description. […]
^b Amount (mg/kg) times number of doses administered
^c Times postadministration at which blood is drawn

For `CC[C@H]1CCC[C@H](O[C@H]2CC[C@H](N(C)C)[C@@H](C)O2)[C@@H](C)C(=O)C2=C[C@@H]3[C@@H](C=C[C@@H]4C[C@@H](O[C@@H]5O[C@@H](C)[C@H](OC)[C@@H](OC)[C@H]5OC)C[C@@H]34)[C@@H]2CC(=O)O1` [A83543A], the inhibition at 0.5 ppm ([1]; 0.50 ppm, second series) was 10%, the inhibition at 1 ppm ([1]; first series, mean of two replicates) was 20% and the inhibition at 1 ppm ([1]; second series) was 40%. The inhibition at 5 ppm ([1]; first series) was 100%, the inhibition at 5 ppm ([1]; second series) was 80% and the inhibition at 10 ppm ([1]; first series) was 100%. For the same compound, the inhibition at 10 ppm ([1]; second series) was 100%, the inhibition at 50 ppm ([1]; first series) was 100% and the inhibition at 50 ppm ([1]; second series) was 100%. The inhibition at 100 ppm ([1]; first series) was 100%, the inhibition at 100 ppm ([1]; second series) was 70% and the mortality at 0.5 ppm [2] was 55%. It also gave a mortality at 1 ppm [2] of 100%, a mortality at 5 ppm [2] of 100% and a mortality at 10 ppm [2] of 100%. For the same compound, the inhibition at 50 ppm ([3]; 50 ppm) was 0%, the inhibition at 100 ppm ([3]; 100 ppm) was 30% and the inhibition at 200 ppm ([3]; 200 ppm) was 90%. The “activity in field trials” value [4] was “showed activity”, the mortality at 0.25 ppm ([5]; 0.25 ppm) was 25% and the mortality at 0.5 ppm ([5]; 0.5 ppm) was 60%. For the same compound, the mortality at 1 ppm ([5]; 1 ppm) was 95%, the mortality at 2 ppm ([5]; 2 ppm) was 100% and the mortality at 5 ppm ([5]; 5 ppm) was 100%. The mortality at 10 ppm ([5]; 10 ppm) was 100%, the mortality at 25 ppm ([5]; 25 ppm) was 100% and the mortality at 50 ppm ([5]; 50 ppm) was 100%. It also gave a mortality at 100 ppm ([5]; 100 ppm) of 100%, a Percent insect mortality ([6]; 0.312 ppm, 24 hr) of 25% and a Percent insect mortality ([6]; 0.312 ppm, 48 hr) of 50%. The Percent insect mortality ([6]; 0.625 ppm, 24 hr) was 60%, the Percent insect mortality ([6]; 0.625 ppm, 48 hr) was 90% and the Percent insect mortality ([6]; 1.25 ppm, 24 hr) was 100%. The Percent insect mortality ([6]; 1.25 ppm, 48 hr) was 100%, the Percent insect mortality ([6]; 2.5 ppm, 24 hr) was 100% and the Percent insect mortality ([6]; 2.5 ppm, 48 hr) was 100%. For the same compound, the Percent insect mortality ([6]; 5 ppm, 24 hr) was 100%, the Percent insect mortality ([6]; 5 ppm, 48 hr) was 100% and the Percent insect mortality ([6]; 10 ppm, 24 hr) was 100%. The Percent insect mortality ([6]; 10 ppm, 48 hr) was 100%, the mortality at 1 mg/kg ([7]; 1.0 mg/kg IV) was 10% and the mortality at 10 mg/kg ([7]; 10 mg/kg IP) was 0%. The mortality at 10 mg/kg ([7]; 10 mg/kg IR) was 0%, the mortality at 30 mg/kg ([7]; 30 mg/kg IP) was 0% and the mortality at 30 mg/kg ([7]; 30 mg/kg IR) was 30%. For the same compound, the mortality at 50 mg/kg ([7]; 50 mg/kg IR) was 70%, the mortality at 25 mg/kg ([7]; 2 × 25 mg/kg IR) was 90% and the “Percent Insecticide Mortality” value ([8]; 35 min, L, 24-hour exposure) was 25%. The “Percent Insecticide Mortality” value ([8]; 35 min, L, 48-hour exposure) was 25%, the “Percent Insecticide Mortality” value ([8]; 5 hr, L, 24-hour exposure) was 10% and the “Percent Insecticide Mortality” value ([8]; 5 hr, L, 48-hour exposure) was 10%. The “Percent Insecticide Mortality” value ([8]; Day 0, L, 24-hour exposure) was 0%, the “Percent Insecticide Mortality” value ([8]; Day 0, L, 48-hour exposure) was 0% and the “Percent Insecticide Mortality” value ([8]; Day 1, L, 24-hour exposure) was 0%. For the same compound, the “Percent Insecticide Mortality” value ([8]; Day 1, L, 48-hour exposure) was 0% and the “Percent Insecticide Mortality” value ([8]; Day 2, L, 24-hour exposure) was 0%.

From patent publication US5362634A, “Process for producing A83543 compounds” (DowElanco, priority 1991, dated 1994)
